In article PMC6234229, “The role of loops B and C in determining the potentiation of GABAA receptors by midazolam” (Pharmacology Research & Perspectives, 2018):

Legend:
[1] = biological target: α6(R100H)β2γ2 GABAA receptor (Homo sapiens, UniProt P18507+P47870+Q16445, R119H); conditions: GABA Hill fit
From the text: (§1) Human (Homo sapiens) GABAA subunits (α1‐6, β2, γ2s) were subcloned into pcDNA3.1+ vectors with a cytomegalovirus (CMV) promoter. The hβ2 and hα3 sequences were humanized rat (Rattus norvegicus) cDNA with amino acid substitutions made to match the human protein sequence. The α1‐3, α5, β2, and γ2s subunits were a generous gift from Neil L. Harrison (Columbia University Medical Center, NY). The α4 subunit was obtained from GenScript (Piscataway, NJ), and the α6 subunit was a generous gift from Robert L. McDonald (Vanderbilt University, TN). […]
(§2) Human embryonic kidney cells containing the SV40 T‐antigen (HEK293T) were acquired from American Type Culture Collection (ATCC®, Manassas, VA), catalogue number, CRL3216. […] Experiments consisted of at least five cells recorded per day from at least two transfections across 3‐4 days to control for cell health and transfection efficiency. At least three cells expressing wild‐type receptors were recorded on days that mutant receptors were tested to provide a time‐matched expression control. […]
(§3) Extracellular solution contained 161 mM NaCl, 3 mM KCl, 1 mM MgCl2, 1.5 mM CaCl2, 10 mM HEPES, and 6 mM D‐glucose, adjusted to pH 7.4 with NaOH (320‐330 mOsm). […] Whole‐cell currents were recorded at ‐60 mV, filtered at 100 Hz and sampled at 200 Hz with a MultiClamp 700B amplifier (Molecular Devices, LLC) and DigiData 1322A (Molecular Devices, LLC) digitizer. […]

[2] = biological target: α6(P161T)β2γ2 GABAA receptor (Homo sapiens, UniProt P18507+P47870+Q16445, P180T); conditions: GABA Hill fit
From the text: as §1, §2, §3

[3] = biological target: T1, α5(H105R)β2γ2 GABAA receptor (Homo sapiens, UniProt P18507+P31644+P47870, H136R); assay: GABA concentration-response assay, whole-cell patch clamp, HEK293T; assay type: cell-based; conditions: GABA Hill fit
T1 construct: expressed in transfected cells; host or cells: HEK293T
From the text: (§4) Human (Homo sapiens) GABAA subunits (α1‐6, β2, γ2s) were subcloned into pcDNA3.1+ vectors with a cytomegalovirus (CMV) promoter. The hβ2 and hα3 sequences were humanized rat (Rattus norvegicus) cDNA with amino acid substitutions made to match the human protein sequence. The α1‐3, α5, β2, and γ2s subunits were a generous gift from Neil L. Harrison (Columbia University Medical Center, NY). The α4 subunit was obtained from GenScript (Piscataway, NJ), and the α6 subunit was a generous gift from Robert L. McDonald (Vanderbilt University, TN). All point mutations (listed in Figure 1C) were introduced using the QuikChange Lightening site‐directed mutagenesis kit (Agilent Technologies, Santa Clara, CA) according to the manufacturer's instructions and were confirmed by sequencing (Eurofins MWG Operon, Louisville, KY).
(§5) Human embryonic kidney cells containing the SV40 T‐antigen (HEK293T) were acquired from American Type Culture Collection (ATCC®, Manassas, VA), catalogue number, CRL3216. HEK293T cells were maintained at 37°C and 5% CO2 in Eagle Minimum Essential Medium (MEM) supplemented with 5% fetal bovine serum (Atlanta Biologicals Inc., Flowery Branch, GA), 40 μM L‐glutamine, 100 U/mL penicillin and 0.1 mM streptomycin. Cells were passaged regularly when they reached 70% confluency using trypsin. Cells were not passaged more than 22 times. New cells were revived from frozen stocks at passage 2‐4. Cells used for in vitro electrophysiology experiments were grown on poly‐D‐lysine‐coated glass coverslips (No.2, VWR, Radnor, PA) and transfected with X‐tremeGENE (Roche Diagnostics, Indianapolis, IN) with the desired receptor subunit cDNAs at a 1:1:1 ratio to express αxβ2γ2s receptors (2 μg total cDNA) and with 0.5 μg green fluorescent protein (GFP) as an expression marker. The γ2s incorporation into receptors was tested with zinc inhibition assays regularly.24 Patch clamp experiments were performed on cells at 24‐72 hours post‐transfection. All experiments were performed at 22°C. Experiments consisted of at least five cells recorded per day from at least two transfections across 3‐4 days to control for cell health and transfection efficiency. At least three cells expressing wild‐type receptors were recorded on days that mutant receptors were tested to provide a time‐matched expression control. All reagents were purchased from Sigma‐Aldrich (St. Louis, MO) unless otherwise stated.
(§6) Extracellular solution contained 161 mM NaCl, 3 mM KCl, 1 mM MgCl2, 1.5 mM CaCl2, 10 mM HEPES, and 6 mM D‐glucose, adjusted to pH 7.4 with NaOH (320‐330 mOsm). […] The perfusion system was controlled by protocols written in pClamp 9 (Molecular Devices, LLC., Sunnyvale, CA). Whole‐cell currents were recorded at ‐60 mV, filtered at 100 Hz and sampled at 200 Hz with a MultiClamp 700B amplifier (Molecular Devices, LLC) and DigiData 1322A (Molecular Devices, LLC) digitizer. […] Cells were recorded with the midazolam protocol no more than two times to avoid desensitization and incomplete washout or irreversible modulation.
(§7) Recordings were analyzed using MATLAB (Math Works, Inc., Natick, MA). […] The maximum peak current, EC50 and Hill coefficient were estimated for assays from each cell. When Hill parameters are estimated from whole‐cell recordings, the changes in the parameters across receptor conditions can be ascribed to the following changes in receptor physiology. Changes in maximum current can be due to changes in the single‐channel conductance or the rate of desensitization. Changes in cell surface receptor expression can cause minor changes in maximum current, but are unlikely to occur in the time course of our experimental protocol. […] More often minor changes in the Hill coefficient are attributed to the altered homogeneity in the receptor population expressed by the HEK293T cell. For example, a shallower Hill coefficient could be caused by a shift in the population of receptors from mostly αβγ receptors to a combination of both αβ and αβγ receptors.

α1β2γ2 GABAA receptor = biological target: T2, α1β2γ2 GABAA receptor (Homo sapiens, UniProt P14867+P18507+P47870); assay: Midazolam potentiation of EC10 GABA currents, whole-cell patch clamp, HEK293T; assay type: cell-based
T2 construct: expressed in transfected cells; host or cells: HEK293T
From the text: as §4, §5, §6, §7

[4] = biological target: T3, α4(P161T)β2γ2 GABAA receptor (Homo sapiens, UniProt P18507+P47870+P48169, P196T); assay: as above; assay type: cell-based; conditions: for Midazolam potentiation (%): α4(P161T)
T3 construct: expressed in transfected cells; host or cells: HEK293T
From the text: as §4, §5, §6, §7

α4β2γ2 GABAA receptor = biological target: T4, α4β2γ2 GABAA receptor (Homo sapiens, UniProt P18507+P47870+P48169); assay: as above; assay type: cell-based; conditions: for Midazolam potentiation (%): α4β2γ2
T4 construct: expressed in transfected cells; host or cells: HEK293T
From the text: as §4, §5, §6, §7

[5] = biological target: T5, α3(H126R)β2γ2 GABAA receptor (Homo sapiens, UniProt P18507+P34903+P47870, H154R); assay: as above; assay type: cell-based
T5 construct: expressed in transfected cells; host or cells: HEK293T
From the text: as §4, §5, §6, §7

[6] = biological target: T6, α3(T187P)β2γ2 GABAA receptor (Homo sapiens, UniProt P18507+P34903+P47870, T215P); assay: as above; assay type: cell-based
T6 construct: expressed in transfected cells; host or cells: HEK293T
From the text: as §4, §5, §6, §7

T4 sequence (P48169 36-554): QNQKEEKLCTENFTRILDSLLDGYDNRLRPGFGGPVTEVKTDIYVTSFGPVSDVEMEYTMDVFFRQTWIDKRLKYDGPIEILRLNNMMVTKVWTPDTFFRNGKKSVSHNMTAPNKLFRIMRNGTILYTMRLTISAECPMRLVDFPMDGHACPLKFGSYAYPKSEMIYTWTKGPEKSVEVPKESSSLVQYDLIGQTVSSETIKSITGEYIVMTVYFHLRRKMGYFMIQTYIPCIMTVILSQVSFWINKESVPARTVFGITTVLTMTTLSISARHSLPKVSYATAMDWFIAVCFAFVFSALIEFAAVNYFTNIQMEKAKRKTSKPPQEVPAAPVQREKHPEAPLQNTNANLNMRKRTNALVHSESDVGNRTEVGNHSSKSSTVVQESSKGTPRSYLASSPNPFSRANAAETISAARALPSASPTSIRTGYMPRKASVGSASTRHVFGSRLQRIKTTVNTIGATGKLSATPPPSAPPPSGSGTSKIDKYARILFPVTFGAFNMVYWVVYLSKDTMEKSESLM
T4 sequence (P47870 26-474 isoform P47870-1 limits assumed): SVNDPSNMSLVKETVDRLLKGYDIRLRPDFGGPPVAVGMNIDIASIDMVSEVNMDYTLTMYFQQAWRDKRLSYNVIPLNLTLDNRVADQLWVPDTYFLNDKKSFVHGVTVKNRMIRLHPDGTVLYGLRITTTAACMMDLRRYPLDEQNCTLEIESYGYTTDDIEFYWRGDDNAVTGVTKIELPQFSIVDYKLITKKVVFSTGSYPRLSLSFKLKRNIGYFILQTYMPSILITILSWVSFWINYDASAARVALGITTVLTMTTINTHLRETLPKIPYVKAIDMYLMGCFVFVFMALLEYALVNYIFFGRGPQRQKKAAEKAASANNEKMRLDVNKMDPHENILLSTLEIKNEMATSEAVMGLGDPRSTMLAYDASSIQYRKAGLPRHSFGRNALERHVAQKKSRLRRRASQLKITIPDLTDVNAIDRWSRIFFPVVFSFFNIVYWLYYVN
T4 sequence (P18507 40-467 isoform P18507-1 limits assumed): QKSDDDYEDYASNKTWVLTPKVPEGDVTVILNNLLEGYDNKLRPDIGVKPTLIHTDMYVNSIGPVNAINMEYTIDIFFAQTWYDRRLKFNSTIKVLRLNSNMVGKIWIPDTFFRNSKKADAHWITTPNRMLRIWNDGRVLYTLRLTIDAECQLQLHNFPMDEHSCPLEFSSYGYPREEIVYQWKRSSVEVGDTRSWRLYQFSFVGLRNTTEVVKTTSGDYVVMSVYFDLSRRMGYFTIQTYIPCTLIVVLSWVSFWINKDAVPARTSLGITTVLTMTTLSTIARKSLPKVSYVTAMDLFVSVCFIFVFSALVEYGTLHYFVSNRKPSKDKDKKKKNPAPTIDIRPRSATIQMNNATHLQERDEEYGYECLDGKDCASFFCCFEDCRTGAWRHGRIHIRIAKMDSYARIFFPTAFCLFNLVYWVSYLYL
T5 sequence (P34903 29-492 H154R): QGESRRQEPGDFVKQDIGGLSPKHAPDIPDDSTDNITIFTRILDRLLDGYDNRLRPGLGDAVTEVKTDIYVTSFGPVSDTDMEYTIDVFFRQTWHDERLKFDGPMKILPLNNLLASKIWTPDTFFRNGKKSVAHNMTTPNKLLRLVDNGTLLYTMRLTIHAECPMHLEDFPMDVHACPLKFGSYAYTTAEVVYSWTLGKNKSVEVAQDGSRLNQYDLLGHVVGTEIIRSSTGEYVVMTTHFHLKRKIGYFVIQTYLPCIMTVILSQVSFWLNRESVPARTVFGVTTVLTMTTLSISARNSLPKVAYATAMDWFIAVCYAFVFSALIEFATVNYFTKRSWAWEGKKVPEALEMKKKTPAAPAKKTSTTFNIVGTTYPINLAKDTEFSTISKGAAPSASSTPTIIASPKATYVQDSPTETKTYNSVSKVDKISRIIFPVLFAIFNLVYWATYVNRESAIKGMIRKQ
T5 sequence (P47870 25-512 limits assumed): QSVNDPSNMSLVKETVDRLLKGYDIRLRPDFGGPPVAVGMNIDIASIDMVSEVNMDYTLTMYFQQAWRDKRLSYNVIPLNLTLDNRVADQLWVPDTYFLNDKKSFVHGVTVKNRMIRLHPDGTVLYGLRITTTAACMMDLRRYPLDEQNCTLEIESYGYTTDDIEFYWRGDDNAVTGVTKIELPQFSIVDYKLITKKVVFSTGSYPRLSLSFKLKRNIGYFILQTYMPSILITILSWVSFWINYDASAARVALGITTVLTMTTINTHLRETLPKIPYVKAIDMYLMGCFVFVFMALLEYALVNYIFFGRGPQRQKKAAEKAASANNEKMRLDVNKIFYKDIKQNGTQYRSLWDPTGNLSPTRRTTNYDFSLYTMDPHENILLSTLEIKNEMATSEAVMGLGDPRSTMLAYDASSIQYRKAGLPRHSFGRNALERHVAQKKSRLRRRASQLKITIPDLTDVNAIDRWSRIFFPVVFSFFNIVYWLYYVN
T5 sequence (P18507 40-467 isoform P18507-1 limits assumed, stated change not applied): as the sequence (P18507 40-467 isoform P18507-1 limits assumed) above
T6 sequence (P34903 29-492 T215P): as the sequence (P34903 29-492 H154R) above, with R126H, T187P counted along it
T6 sequence (P47870 25-512 limits assumed): as the sequence (P47870 25-512 limits assumed) above
T6 sequence (P18507 40-467 isoform P18507-1 limits assumed, stated change not applied): as the sequence (P18507 40-467 isoform P18507-1 limits assumed) above

NCCCC(=O)O [GABA, γ‐aminobutyric acid]
Max Current (pA) [1]: -2902 ± 349.5 pA | Max Current (pA) [2]: -3540 ± 290.2 pA | Hill coefficient [3]: 1.269 ± 0.084 | Max Current (pA) [3]: -6799 ± 919.2 pA

Cc1ncc2n1-c1ccc(Cl)cc1C(c1ccccc1F)=NC2 [midazolam]
EC50 (α1β2γ2 GABAA receptor): 71.4 ± 5.8 nM | Midazolam potentiation (%) (α1β2γ2 GABAA receptor; 10 nM MDZ + EC10 GABA, α1β2γ2): 22.06 ± 3.46% | Midazolam potentiation (%) (α1β2γ2 GABAA receptor; 50 nM MDZ + EC10 GABA, α1β2γ2): 71.67 ± 6.40% | Midazolam potentiation (%) (α1β2γ2 GABAA receptor; 100 nM MDZ + EC10 GABA, α1β2γ2): 145.94 ± 13.37% | Midazolam potentiation (%) (α1β2γ2 GABAA receptor; 500 nM MDZ + EC10 GABA, α1β2γ2): 201.94 ± 16.80% | Midazolam potentiation (%) (α1β2γ2 GABAA receptor; 1000 nM MDZ + EC10 GABA, α1β2γ2): 215.35 ± 26.71% | Max potentiation (%) (α1β2γ2 GABAA receptor; α1β2γ2, Hill fit, midazolam 10-1000 nM + EC10 GABA): 203.0 ± 17.6% | Hill coefficient (α1β2γ2 GABAA receptor; α1β2γ2, midazolam Hill fit): 1.765 ± 0.165 | Midazolam potentiation (%) ([4]; 10 nM MDZ + EC10 GABA): 13.22 ± 3.76% | Midazolam potentiation (%) ([4]; 50 nM MDZ + EC10 GABA): 10.31 ± 5.64% | Midazolam potentiation (%) ([4]; 100 nM MDZ + EC10 GABA): 14.28 ± 5.87% | Midazolam potentiation (%) ([4]; 500 nM MDZ + EC10 GABA): 21.94 ± 5.61% | Midazolam potentiation (%) ([4]; 1000 nM MDZ + EC10 GABA): 26.43 ± 9.72% | responsiveness to midazolam potentiation ([4]; α4(P161T)β2γ2): failed to confer midazolam responsiveness | Midazolam potentiation (%) (α4β2γ2 GABAA receptor; 10 nM MDZ + EC10 GABA): 10.98 ± 3.61% | Midazolam potentiation (%) (α4β2γ2 GABAA receptor; 50 nM MDZ + EC10 GABA): 13.30 ± 4.65% | Midazolam potentiation (%) (α4β2γ2 GABAA receptor; 100 nM MDZ + EC10 GABA): 15.15 ± 4.85% | Midazolam potentiation (%) (α4β2γ2 GABAA receptor; 500 nM MDZ + EC10 GABA): 15.98 ± 5.42% | Midazolam potentiation (%) (α4β2γ2 GABAA receptor; 1000 nM MDZ + EC10 GABA): 17.89 ± 4.82% | responsiveness to midazolam potentiation (α4β2γ2 GABAA receptor; wildtype α4β2γ2): no notable midazolam potentiation | responsiveness to midazolam potentiation [5]: abolished the ability of receptors to respond to midazolam potentiation | Midazolam potentiation (%) ([5]; 10 nM MDZ + EC10 GABA): 3.71 ± 1.31% | Midazolam potentiation (%) ([5]; 50 nM MDZ + EC10 GABA): 3.63 ± 2.06% | Midazolam potentiation (%) ([5]; 100 nM MDZ + EC10 GABA): 8.25 ± 1.64% | Midazolam potentiation (%) ([5]; 500 nM MDZ + EC10 GABA): 7.92 ± 2.84% | Midazolam potentiation (%) ([5]; 1000 nM MDZ + EC10 GABA): 10.78 ± 2.42% | EC50 [6]: 55.2 ± 2.91 nM | Midazolam potentiation (%) ([6]; 10 nM MDZ + EC10 GABA, α3(T187P)): 23.71 ± 6.37% | Midazolam potentiation (%) ([6]; 50 nM MDZ + EC10 GABA, α3(T187P)): 92.47 ± 12.51% | Midazolam potentiation (%) ([6]; 100 nM MDZ + EC10 GABA, α3(T187P)): 168.56 ± 23.08% | Midazolam potentiation (%) ([6]; 500 nM MDZ + EC10 GABA, α3(T187P)): 212.97 ± 30.06% | Midazolam potentiation (%) ([6]; 1000 nM MDZ + EC10 GABA, α3(T187P)): 213.30 ± 30.99% | Max potentiation (%) ([6]; α3(T187P), Hill fit, midazolam 10-1000 nM + EC10 GABA): 219.6 ± 32.3% | Hill coefficient ([6]; α3(T187P), midazolam Hill fit): 1.963 ± 0.224
